Data published in patent US9737510B2, “Indazole compounds and a process for the preparation thereof” (Council of Scientific & Industrial Research, priority 2013, dated 2017).
≈ marks a conversion by molar mass, not a printed value.

Columns and labels:
MIN6 cells = experiment: Insulinotropic activity: insulin secretion from MIN6 cells (ELISA based assay); format: cell-based, mouse; conditions: for Insulin Secretion: standard error in bracket
Experimental: Insulinotropic activity of the NDS100178 and NDS100179 was measured by a well-optimized ELISA based Assay (Shantani Protocol #5205) described below.
Materials • MIN6Cell (source: National Center for Cell Sciences, Pune) • Mouse Insulin ELISA kit (Mercodia, 10-1247-01) • Plate Shaker (MixMatefromEppendorf) • HEPES Balanced Krebs-Ringer bicarbonate buffer (components as follows)
Method • i. Seed proliferating culture of MIN-6 cells into a 6 well plate with almost half the confluency two days before the experiment. • ii. One the day of Insulin induction experiment, the cells should become almost confluent and are in good condition. • iii. On the day of experiment, first prepare 1×KRB-HEPES buffer with 0.1% BSA (for rinse) and without BSA (for equilibration and insulin induction) as described in the materials. • iv. Prepare equilibration buffer: 1×KRB-HEPES buffer without BSA containing 3.3 mM glucose (to bring down the glucose level of all cells to the same level). For example, add 66 ul 1 M glucose stock solution to 20 ml KRB-HEPES buffer without BSA. • v. Prepare the stimulating buffer (insulin induction): 1×KRB-HEPES buffer without BSA containing the defined glucose level (in most cases, it will be 16.7 mM glucose) and the desired concentration of molecule. • vi. Pre warm all the buffers to 37° C. in the water bath (at 15 minutes). • vii. Remove media from all wells, rinse each well twice with 2 ml KRB-HEPES buffer containing 0.1% BSA. • viii. Add 2 ml of equilibration buffer in each well and incubate at 37° C. for half an hour. • ix. After the incubation add 2 ml of stimulating buffer in respective wells (properly labelled) and incubate 37° C. for 1 hour. • x. In the meanwhile, turn on the refrigerated centrifuge and set the temperature to 4° C. Take out enzyme conjugate, diluent buffer, Calibrator 0 and stripes needed (for example, two stripes for 8 samples to be run in duplicate) from Mercodia ELISA kit box (store at 4° C.) and warm up them to RT. • xi. […] Centrifuge the tubes at 600 g for 5 min. • xiii. Take out 500 ul in fresh properly labelled precooled tubes. • xiv. Now dilute the samples 1:30 in calibrator 0 i.e. add 3 ul of each sample to 87 ul of Calibrator 0 in 8 different properly labelled 0.5 ml tubes. Mix them well. • xv. Prepare 1× enzyme conjugate buffer, i.e. mix 180 ul enzyme (11×) with 1800 ul diluent buffer for ELISA of two stripes. • xvi. Add 10 ul of each sample (diluted, in duplicate) in the two adjacent wells. Be careful not to touch the bottom. • xvii. Carefully add 100 ul of Enzyme Conjugate buffer (1×) to each well and incubate on a plate shaker (eppendorf MixMate) at 800 rpm for 2 hours at 25° C. • xviii. 45 min before the incubation is over take out wash buffer, substrate TMB and Stop solution. Keep them at RT. • xix. 5 min before the incubation is over prepare 1× wash buffer (21×), i.e. 40 ml distilled water+2 ml (21×) wash buffer in a reservoir. • xx. After the incubation is over, wash each well 7 times with 350 ul wash buffer. Use a multichannel (175 ul). • xxi. After the washing add 200 uL substrate TMB solution in each well. Maintain a proper pace. • xxii. Allow to incubate for 15 min. Set the program on the plate reader, to take absorbance read at 450 nm. Add a 5 sec shake step to allow proper mixing. • xxiii. After incubation immediately add 50 ul Stop solution in each well at same pace and take absorbance read at 450 nm.
Assay conditions were kept same in all the assays. The difference in absorption-value for control experiment (no treatment with molecule) over different days is attributed to cell culture conditions. Other varying conditions are specified in the respective graphs.
[Note: If not mentioned specifically, HG=High Glucose (16.7 mM), LG=Low Glucose (3.3 mM)]

LTA4H = target: T1, LTA4H (Homo sapiens, UniProt P09960); experiment: LTA4H inhibition; format: biochemical; conditions: read-out: IC50 against LTA4H
T1 sequence (P09960 1-611): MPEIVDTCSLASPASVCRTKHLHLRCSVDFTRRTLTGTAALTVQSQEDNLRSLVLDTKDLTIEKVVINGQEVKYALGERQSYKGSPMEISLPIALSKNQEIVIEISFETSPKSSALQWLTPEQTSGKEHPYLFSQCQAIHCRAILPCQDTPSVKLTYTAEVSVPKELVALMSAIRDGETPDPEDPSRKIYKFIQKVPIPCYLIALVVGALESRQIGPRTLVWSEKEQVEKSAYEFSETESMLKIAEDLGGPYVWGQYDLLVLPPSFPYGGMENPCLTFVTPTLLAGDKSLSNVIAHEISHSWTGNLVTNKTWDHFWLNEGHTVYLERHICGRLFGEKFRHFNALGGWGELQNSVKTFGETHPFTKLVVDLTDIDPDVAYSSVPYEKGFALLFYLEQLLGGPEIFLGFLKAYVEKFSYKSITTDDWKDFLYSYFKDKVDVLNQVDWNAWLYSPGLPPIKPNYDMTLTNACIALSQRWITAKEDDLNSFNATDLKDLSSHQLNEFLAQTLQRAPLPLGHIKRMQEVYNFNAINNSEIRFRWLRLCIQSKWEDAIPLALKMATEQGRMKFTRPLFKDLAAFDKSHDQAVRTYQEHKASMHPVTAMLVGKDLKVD
Experimental: NDS100178 series of compound primarily activates imidazoline receptor […]. In high glucose condition this activation leads to formation of Diacylglycerol (DAG). DAG subsequently generates Arachidonic Acids (AA) in the cell. Metabolites of AA especially epoxyeicosatrienenoic acids (EETs) and hydroxyeicosatetrenoic acids (HETEs) induce exocytosis leading to increased secretion of insulin from the cells. The other major signalling pathway that can alter the glucose/DAG induced AA pool is the leukotriene pathway, that, by metabolizing AA into different leukotrienes and not EET and HETE can suppress its insulin secretion effect. Molecules that can inhibit metabolism of AA through leukotriene pathway can maintain AA pool leading to its metabolism only through EETs and HETEs and thus can enhance increase insulin secretion. One of the major enzymes in leukotriene pathway is LTA4H hydrolase that converts LTA4 into LTB4, a AA derivative that suppresses insulin secretion. A novel finding that inhibiting LTA4H can enhance insulin secretion has been established by the inventors. NDS100178 inhibits LTA4H (IC50<500 nM) while the IC50 against LTA4H target of compound 6 from patent US20040009976 Compound: 5-Chloro-2-methyl-3-(4,5-dihydro-1-H-imidazol-2-yl)-1H-indole) is above 10 uM.

Metabolic study in HLM = format: in vitro ADME
Kinetic solubility = format: physicochemical; conditions: kinetic from dmso stock
CYP3A4 = CYP3A4 (Homo sapiens, UniProt P08684); experiment: CYP3A4 inhibition; format: in vitro ADME
CYP3A4, sequence (P08684 whole entry): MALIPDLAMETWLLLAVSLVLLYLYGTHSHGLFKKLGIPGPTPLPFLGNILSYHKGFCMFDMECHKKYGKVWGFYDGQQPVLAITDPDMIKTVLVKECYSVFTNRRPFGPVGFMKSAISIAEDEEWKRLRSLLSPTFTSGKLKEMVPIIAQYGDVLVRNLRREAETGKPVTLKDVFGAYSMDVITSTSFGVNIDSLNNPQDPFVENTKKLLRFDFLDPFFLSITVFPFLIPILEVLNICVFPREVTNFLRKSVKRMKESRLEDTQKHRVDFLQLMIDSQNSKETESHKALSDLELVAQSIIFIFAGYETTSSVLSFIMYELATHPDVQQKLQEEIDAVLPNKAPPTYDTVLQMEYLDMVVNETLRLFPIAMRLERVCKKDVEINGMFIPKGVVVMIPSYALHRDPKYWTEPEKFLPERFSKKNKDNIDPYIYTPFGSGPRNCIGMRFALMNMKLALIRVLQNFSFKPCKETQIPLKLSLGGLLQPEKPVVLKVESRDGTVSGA

[1] = Metabolic study and intrinsic clearance in MLM; format: in vitro ADME

SMILES	Insulin Secretion (MIN6 cells; MIN6 cells, compound 0.1 μM)	Insulin Secretion (MIN6 cells; MIN6 cells, compound 1.0 μM)	IC50 (LTA4H) [µM]	Metabolic Study HLM Mean % PCR* (Metabolic study in HLM) [%]	solubility kinetic (Kinetic solubility) [µM]	CYP3A4 Inhibition (CYP3A4)	Intrinsic Clearnace MLM [1]	Metabolic Study MLM Mean % PCR* [1] [%]	insulin secretion from MIN6 cells in high glucose conditions (MIN6 cells; 33 uM, 1 hour, high glucose (16.7 mM), three different days)	insulin secretion over control (MIN6 cells; MIN6 cells, 10 nM)	insulin secretion over control (MIN6 cells; MIN6 cells, 50 nM)	increase in insulin secretion (MIN6 cells; MIN6 cells, 100 nM)	Insulin Secretion (MIN6 cells; MIN6 cells, compound 10.0 μM)	glucose dependence of insulinotropic activity (MIN6 cells; MIN6 cells, high glucose vs lower glucose conditions)	melting point [°C]
Cc1[nH]c2ccc(Cl)cc2c1C1=NCCN1 [Example-6 of Patent US20040009976, 5-Chloro-2-methyl-3-(4,5-dihydro-1-H-imidazol-2-yl)-1H-indole, reference compound]	1.39 (0.15) ng/ml	3.68 (2.11) ng/ml	> 10	99.11	196 (≈ 45.9 µg/mL)	No inhibition	21.3 μl/min/mg of protein	64.83	–	–	–	–	–	–	–
Clc1ccc2[nH]nc(C3=NCCN3)c2c1 [NDS100178, 5-Chloro-3-(4,5-dihydro-1H-imidazol-2-yl)-1H-indazole]	8.91 (1.6) ng/ml	12.49 (1.9) ng/ml	< 0.5	79.70	214 (≈ 47.3 µg/mL)	No inhibition	80.8 μl/min/mg of protein	38.84	significant increase in the insulin secretion	No significant difference over the control	No significant difference over the control	more than 100%	35.09 (4.0) ng/ml	glucose dependent	248 to 249
